Test results published in US10226041B2, “Compositions and methods for improving the quality of processed sperm” (Inguran, LLC, priority 2011, dated 2019).

System: sex-sorted sperm cells
Assay: CASA post-thaw motility of sex sorted bull sperm treated with OSR
Assay type: cell-based, bovine
Design: key to BCF: beat cross frequency in Hz; key to ALH: lateral head displacement in μm; key to STR / LIN: percent; key to Motile: percent motile sperm; key to VAP / VSL / VCL: velocity in μm/s
Conditions: 3 step
Source text: 5. Sperm Motility Evaluations by CASA. A comparison of viewing chambers and slides can be done in a variety of IVOS instruments, which for example only can be a Hamilton-Thorne IVOS (Hamilton-Thorne, Beverly, Mass.). Instrument settings: image capture; frames per second=60; number of frames=30; cell detection; minimum contrast=50; minimum cell size=5; defaults, cell size=5; cell intensity=50; progressive cells, path velocity=50 um/s; straightness ≥70%; slow cells (um/s); average path velocity (VAP, <30 um/s), straight-line velocity (VSL, <15 um/s). The CASA motility variables measured can be a percentage of total motile sperm (motile), percentage of progressively motile sperm (progressive), VAO, VSL, curvilinear velocity (VCL, um/s), average lateral head displacement (ALK, um) and the number of times the sperm head crosses the mean path/s (BCF, Hz), straight-line sperm motility (STR, %), and linear sperm motility (LIN, %). See for instance, Lenz, R W, et al., J Anim Sci (2011) 89:383-388, incorporated by reference herein in its entirety.
One set of semen from each bull was used as a control while to the remaining sets of semen samples were added vitamin B12, as the antioxidant, at respective concentrations of 0.5 mg/ml and 0.25 mg/ml. For each sample, the same concentration of vitamin B12 was added (i) during the staining process, and (ii) in the catch fluid of the collection vessel. […] Sperm samples were sorted in “High Purity” mode, and the collected sex-sorted sperm were extended with a cryoextender, which in some cases again contained the same concentration of vitamin B12 and the samples were frozen. Three hours after thawing (which is a standard time frame to conduct quality control assessments on sorted frozen thawed sperm samples) the thawed samples were put through CASA, a machine that provides various data on sperm including motility and progressive motility information.
In the tables below: VAP (average path velocity (μm/s)); VSL (straight-line velocity (μm/s)); VCL (curvilinear velocity (μm/s)); ALH (average lateral head displacement (μm)); BCF (the number of times the sperm head crosses the mean path/s in Hz); STR (percent straight-line sperm motility); LIN (percent linear sperm motility); PIA (percent intact acrosomes); motile (percent motile sperm); and progressive (percent progressively motile sperm).
There is no correlation with regard to randomly assigned names such as “Bull A.” Bull A from Example 5 is not the same bull as Bull A from Example 7.
In both cases the concentration of the vitamin B12 was 1 mg/ml. For all other bulls in the table below unless otherwise indicated, the concentration of vitamin B12 added was also 1 mg/ml.
In an additional experiment, motility and progressive motility were checked 3.75 hours after thawing a sex sorted semen sample treated with the antioxidant. The OSR was not added to the control sample. The semen sample was derived from a single bull. 0.25 mg/ml concentration of vitamin B12 was added to the test sample during the staining step, the collecting step (in the catch fluid of the collecting vessel) and in the cryoprotectant extender prior to freezing the sample.
[…] The OSR was not added to the control samples. The semen samples were derived from two Holstein bulls.

[1] = Holstein 0 hr post-thaw, .25 mg/ml
[2] = Holstein 0 hr post-thaw, .35 mg/ml
[3] = Holstein 0 hr post-thaw, .45 mg/ml
[4] = Holstein 3 hr post-thaw (1st block), .25 mg/ml
[5] = Holstein 3 hr post-thaw (1st block), .35 mg/ml
[6] = Holstein 3 hr post-thaw (1st block), .45 mg/ml
[7] = Holstein 3 hr post-thaw (2nd block), .25 mg/ml
[8] = Holstein 3 hr post-thaw (2nd block), .35 mg/ml
[9] = Holstein 3 hr post-thaw (2nd block), .45 mg/ml
[10] = Holstein 6 hr post-thaw (1st block), .25 mg/ml
[11] = Holstein 6 hr post-thaw (1st block), .35 mg/ml
[12] = Holstein 6 hr post-thaw (1st block), .45 mg/ml
[13] = Holstein 6 hr post-thaw (2nd block), .25 mg/ml
[14] = Holstein 6 hr post-thaw (2nd block), .35 mg/ml
[15] = Holstein 6 hr post-thaw (2nd block), .45 mg/ml
[16] = Jersey 0 hr post-thaw, .25 mg/ml
[17] = Jersey 0 hr post-thaw, .35 mg/ml
[18] = Jersey 0 hr post-thaw, .45 mg/ml
[19] = Jersey 3 hr post-thaw, .25 mg/ml
[20] = Jersey 3 hr post-thaw, .35 mg/ml
[21] = Jersey 3 hr post-thaw, .45 mg/ml

O=C(O)CCC(=O)C(=O)O [AKG, Alpha-ketoglutarate]
ALH [1]: 8
BCF [1]: 27
LIN [1]: 48
Motile [1]: 91
Prog [1]: 75
STR [1]: 82
VAP [1]: 104
VCL [1]: 185
VSL [1]: 81
ALH [2]: 7
BCF [2]: 29
LIN [2]: 51
Motile [2]: 80
Prog [2]: 65
STR [2]: 85
VAP [2]: 94
VCL [2]: 165
VSL [2]: 80
ALH [3]: 7
BCF [3]: 30
LIN [3]: 57
Motile [3]: 86
Prog [3]: 75
STR [3]: 89
VAP [3]: 98
VCL [3]: 162
VSL [3]: 88
ALH [4]: 7
BCF [4]: 26
LIN [4]: 45
Motile [4]: 77
Prog [4]: 60
STR [4]: 81
VAP [4]: 99
VCL [4]: 176
VSL [4]: 79
ALH [5]: 6
BCF [5]: 25
LIN [5]: 50
Motile [5]: 63
Prog [5]: 48
STR [5]: 83
VAP [5]: 85
VCL [5]: 145
VSL [5]: 70
ALH [6]: 5
BCF [6]: 24
LIN [6]: 56
Motile [6]: 60
Prog [6]: 56
STR [6]: 85
VAP [6]: 94
VCL [6]: 145
VSL [6]: 80
ALH [7]: 6
BCF [7]: 26
LIN [7]: 47
Motile [7]: 71
Prog [7]: 55
STR [7]: 81
VAP [7]: 96
VCL [7]: 169
VSL [7]: 77
ALH [8]: 5
BCF [8]: 21
LIN [8]: 50
Motile [8]: 64
Prog [8]: 38
STR [8]: 84
VAP [8]: 69
VCL [8]: 117
VSL [8]: 57
ALH [9]: 6
BCF [9]: 25
LIN [9]: 53
Motile [9]: 60
Prog [9]: 50
STR [9]: 84
VAP [9]: 90
VCL [9]: 144
VSL [9]: 75
ALH [10]: 6
BCF [10]: 17
LIN [10]: 39
Motile [10]: 36
Prog [10]: 7
STR [10]: 76
VAP [10]: 44
VCL [10]: 87
VSL [10]: 33
ALH [11]: 7
BCF [11]: 16
LIN [11]: 40
Motile [11]: 58
Prog [11]: 7
STR [11]: 76
VAP [11]: 42
VCL [11]: 80
VSL [11]: 32
ALH [12]: 5
BCF [12]: 22
LIN [12]: 48
Motile [12]: 52
Prog [12]: 22
STR [12]: 82
VAP [12]: 55
VCL [12]: 96
VSL [12]: 46
ALH [13]: 6
BCF [13]: 17
LIN [13]: 39
Motile [13]: 36
Prog [13]: 7
STR [13]: 76
VAP [13]: 44
VCL [13]: 87
VSL [13]: 33
ALH [14]: 7
BCF [14]: 16
LIN [14]: 40
Motile [14]: 58
Prog [14]: 7
STR [14]: 76
VAP [14]: 42
VCL [14]: 80
VSL [14]: 32
ALH [15]: 5
BCF [15]: 22
LIN [15]: 48
Motile [15]: 52
Prog [15]: 22
STR [15]: 82
VAP [15]: 55
VCL [15]: 96
VSL [15]: 46
ALH [16]: 7
BCF [16]: 24
LIN [16]: 48
Motile [16]: 67
Prog [16]: 51
STR [16]: 83
VAP [16]: 83
VCL [16]: 152
VSL [16]: 68
ALH [17]: 6
BCF [17]: 25
LIN [17]: 47
Motile [17]: 57
Prog [17]: 43
STR [17]: 82
VAP [17]: 79
VCL [17]: 146
VSL [17]: 63
ALH [18]: 6
BCF [18]: 27
LIN [18]: 56
Motile [18]: 81
Prog [18]: 66
STR [18]: 87
VAP [18]: 81
VCL [18]: 133
VSL [18]: 70
ALH [19]: 5
BCF [19]: 24
LIN [19]: 46
Motile [19]: 33
Prog [19]: 16
STR [19]: 79
VAP [19]: 65
VCL [19]: 117
VSL [19]: 49
ALH [20]: 6
BCF [20]: 25
LIN [20]: 45
Motile [20]: 26
Prog [20]: 10
STR [20]: 80
VAP [20]: 59
VCL [20]: 110
VSL [20]: 46
ALH [21]: 6
BCF [21]: 25
LIN [21]: 45
Motile [21]: 59
Prog [21]: 25
STR [21]: 78
VAP [21]: 67
VCL [21]: 66
VSL [21]: 50
